In ChEMBL document CHEMBL3714714, “Hepatocyte nuclear factor 4alpha modulator compounds” (2005):

Key:
[1] = target: T1, Hepatocyte nuclear factor 4-alpha (Homo sapiens, UniProt P41235); test: Displacement of [3H]methyl4-[5,6,7,8-tetrahydro-5,5,8,8-tetramethyl-3-ethyloxy-2-naphthalenyl]benzoyl benzoate from HNF4alpha (unknown origin) by radioligand binding assay
T1 sequence (P41235 whole entry): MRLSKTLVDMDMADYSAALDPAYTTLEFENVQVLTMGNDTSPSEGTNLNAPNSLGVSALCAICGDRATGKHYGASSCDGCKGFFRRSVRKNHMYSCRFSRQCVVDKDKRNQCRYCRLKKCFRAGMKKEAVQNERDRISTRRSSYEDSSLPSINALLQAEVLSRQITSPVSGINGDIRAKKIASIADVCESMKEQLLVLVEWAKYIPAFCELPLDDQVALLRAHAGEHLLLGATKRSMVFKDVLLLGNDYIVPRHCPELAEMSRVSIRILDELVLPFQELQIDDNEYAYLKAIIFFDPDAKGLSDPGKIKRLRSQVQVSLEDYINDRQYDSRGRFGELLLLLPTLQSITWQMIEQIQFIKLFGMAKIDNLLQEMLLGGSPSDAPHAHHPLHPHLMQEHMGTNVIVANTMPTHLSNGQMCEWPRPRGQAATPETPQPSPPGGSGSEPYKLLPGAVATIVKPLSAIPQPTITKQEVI

[2] = target: T2, Retinoic acid receptor RXR-alpha (Homo sapiens, UniProt P19793); test: Displacement of [3H]9-cis-retinoic acid from RXRalpha (unknown origin) by radioligand binding assay
T2 sequence (P19793 whole entry): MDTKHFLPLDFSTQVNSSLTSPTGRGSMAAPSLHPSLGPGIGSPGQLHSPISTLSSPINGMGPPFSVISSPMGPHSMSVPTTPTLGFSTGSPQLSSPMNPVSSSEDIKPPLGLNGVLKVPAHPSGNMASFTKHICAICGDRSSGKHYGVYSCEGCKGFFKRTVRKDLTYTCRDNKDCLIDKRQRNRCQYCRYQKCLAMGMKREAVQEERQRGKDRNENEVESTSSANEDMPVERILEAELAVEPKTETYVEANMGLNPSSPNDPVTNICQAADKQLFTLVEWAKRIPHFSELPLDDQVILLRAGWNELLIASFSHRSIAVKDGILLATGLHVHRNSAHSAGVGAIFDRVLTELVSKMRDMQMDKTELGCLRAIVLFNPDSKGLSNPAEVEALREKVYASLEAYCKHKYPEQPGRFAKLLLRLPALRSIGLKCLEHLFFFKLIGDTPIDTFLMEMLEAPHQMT

[3] = target: T3, Hepatocyte nuclear factor 4-alpha (Rattus norvegicus) (UniProt P22449); test: Antagonist activity against rat HNF4alpha1 expressed in African green monkey CV1 cells assessed as reduction in endogenous agoinst-induced luciferase expression incubated for 24 hrs by firefly luciferase reporter gene assay relative to control; type: functional, cell-based; details: CV-1
T3 sequence (whole entry): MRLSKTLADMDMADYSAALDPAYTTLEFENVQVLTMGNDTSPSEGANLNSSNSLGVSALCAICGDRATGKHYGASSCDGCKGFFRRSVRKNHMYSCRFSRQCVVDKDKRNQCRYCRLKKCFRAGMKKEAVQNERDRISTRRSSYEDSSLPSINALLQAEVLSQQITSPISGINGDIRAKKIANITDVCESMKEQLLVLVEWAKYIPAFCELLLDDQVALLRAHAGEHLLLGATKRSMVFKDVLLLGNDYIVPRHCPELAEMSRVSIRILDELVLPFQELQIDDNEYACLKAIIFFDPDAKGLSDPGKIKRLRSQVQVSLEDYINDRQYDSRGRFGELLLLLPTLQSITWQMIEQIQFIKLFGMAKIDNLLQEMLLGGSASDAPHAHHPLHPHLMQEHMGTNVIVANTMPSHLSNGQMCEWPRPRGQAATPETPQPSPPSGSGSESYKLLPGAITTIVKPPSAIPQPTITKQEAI

[4] = target: T4, Hepatocyte nuclear factor 4-alpha (Rattus norvegicus, UniProt P22449); test: Antagonist activity against rat HNF4alpha1 expressed in African green monkey CV1 cells assessed as reduction in endogenous agoinst-induced luciferase expression incubated for 24 hrs by firefly luciferase reporter gene assay; type: functional, cell-based, CV-1
T4 sequence (P22449 whole entry): T3 sequence (whole entry)

[5] = target: T3, Hepatocyte nuclear factor 4-alpha (Rattus norvegicus); test: Agonist activity at rat HNF4alpha1 expressed in African green monkey CV1 cells incubated for 24 hrs by firefly luciferase reporter gene assay relative to LG0100695; type: functional, cell-based; details: CV-1
[6] = target: T4, Hepatocyte nuclear factor 4-alpha; test: Agonist activity at rat HNF4alpha1 expressed in African green monkey CV1 cells incubated for 24 hrs by firefly luciferase reporter gene assay; type: functional, cell-based, CV-1

Ki [1] [µM] | Ki [2] [µM] | Efficacy [3] [%] | IC50 [4] [µM] | Efficacy [5] [%] | EC50 [6] [µM] | Structure (SMILES)
0.339 | 2.7 | 108 | 0.004 | – | – | CCCCOC(c1ccc(C(=O)O)cc1)c1cc2c(cc1OCC)C(C)(C)CCC2(C)C (stereo unspecified)
0.11 | 0.824 | – | – | 100 | 0.263 | CCOc1cc2c(cc1C(=O)c1ccc(C(=O)O)cc1)C(C)(C)CCC2(C)C
0.322 | 1.9 | 120 | 0.001 | – | – | CCCCCCO/N=C(\c1ccc(C(=O)O)cc1)c1cc2c(cc1OCC)C(C)(C)CCC2(C)C
0.721 | 3 | – | – | 68 | 2.24 | CCOc1cc2c(cc1C(=O)c1ccc(C(=O)O)cc1)C(C)(C)CCO2
0.966 | > 30 | 118 | 0.035 | – | – | CCOc1cc2c(cc1/C(=N/OCc1cccc(F)c1F)c1ccc(C(=O)O)cc1)C(C)(C)CCC2(C)C
1.01 | > 30 | 103 | 0.019 | – | – | Cc1ccc(C)c(N/N=C(\c2ccc(C(=O)O)cc2)c2cc3c(cc2C)C(C)(C)CCC3(C)C)c1
0.364 | > 10 | – | – | 95 | 1.14 | CCOc1cc2c(cc1C(=O)c1ccc(C(=O)C(=O)O)cc1)C(C)(C)CCC2(C)C
0.096 | 1.5 | – | – | 33 | 2.19 | CC1(C)CCC(C)(C)c2cc(C(=O)c3ccc(C(=O)O)cc3)c(OCC(F)(F)F)cc21
0.244 | 4.6 | 119 | 0.003 | – | – | CCOc1cc2c(cc1/C(=N/OCCC(C)C)c1ccc(C(=O)O)cc1)C(C)(C)CCC2(C)C
1.19 | 3 | – | – | – | – | Cc1cc2c(cc1C(OCc1ccc(SC(F)(F)F)cc1)c1ccc(C(=O)O)cc1)C(C)(C)CCC2(C)C (stereo unspecified)
1.4 | 6.5 | – | – | – | – | Cc1cc2c(cc1C(NCc1cccc(F)c1)c1ccc(C(=O)O)cc1)C(C)(C)CCC2(C)C (stereo unspecified)
0.165 | > 5 | – | – | 43 | 2.23 | Cc1c(C(=O)c2ccc(C(=O)O)cc2)cc2c(c1[N+](=O)[O-])C(C)(C)CCC2(C)C
2.21 | > 30 | – | – | 88 | 2.95 | Cc1c(C(=O)c2ccc(C(=O)O)cc2)cc2c(c1[N+](=O)[O-])OCCC2(C)C
4.6 | > 30 | – | – | 42 | 2.85 | COc1c(C(=O)c2ccc(C(=O)O)cc2)cc2c(c1C)N(C)CCC2(C)C
0.215 | 3 | 110 | 0.001 | – | – | CCOc1cc2c(cc1/C(=N/Nc1cc(F)ccc1F)c1ccc(C(=O)O)cc1)C(C)(C)CCC2(C)C
0.514 | > 10 | 100 | 0.103 | – | – | CC1(C)CCC(C)(C)c2cc(/C(=N\Nc3ccccc3)c3ccc(C(=O)O)cc3)ccc21
0.163 | > 10 | – | – | 57 | 0.594 | CC1(C)CCC(C)(C)c2c1cc(C(=O)c1ccc(C(=O)O)cc1)c(OCC(F)F)c2[N+](=O)[O-]
0.58 | 5.2 | 106 | 0.004 | – | – | Cc1cc2c(cc1C(OCc1ccccc1F)c1ccc(C(=O)O)cc1)C(C)(C)CCC2(C)C (stereo unspecified)
5.21 | > 30 | 121 | 0.022 | – | – | Cc1ccc(S(=O)(=O)Nc2c(C)c(Cc3ccc(C(=O)O)cc3)cc3c2C(C)(C)CCC3(C)C)cc1

Structure (SMILES) | Ki [1] [µM] | Ki [2] [µM] | Efficacy [3] [%] | IC50 [4] [µM] | Efficacy [5] [%] | EC50 [6] [µM]
Cc1cc2c(c(O)c1C(=O)c1ccc(C(=O)O)cc1)C(C)(C)CCC2(C)C | 0.71 | > 30 | – | – | 103 | 2.64
